Experimental data taken from article PMC8943889, “Synthetic studies with the brevicidine and laterocidine lipopeptide antibiotics including analogues with enhanced properties and in vivo efficacy” (Chemical Science, 2022).
Converted amounts (≈) assume the structure as drawn. Read-outs that look alike come from different tables or passages of the source. Positions of bridges follow the written chain, without caps; N, C: chain ends. Non-standard residues stand in square brackets, D forms with d. Residues, ends and D or L forms follow the SMILES beside them. ξ: configuration not given here. *: point of attachment. Hexanoyl(4ξ-Me) = CCC(C)CCC(=O)*; dOrn = NCCC[C@@H](N)C(=O)O; Orn = NCCC[C@H](N)C(=O)O; Dap = NC[C@H](N)C(=O)O

Experiments:
P. aeruginosa NRZ-03961 = type: cell-based
Experimental: (§1) Minimum inhibitory concentrations (MICs) were determined by broth microdilution according to CLSI guidelines in triplicate. Blood agar plates were inoculated with glycerol stocks of E. coli ATCC 25922, E. coli MCR-1 (clinical isolate from Utrecht Medical Centre, NL), E. coli EQAS MCR-2 (clinical isolate from Wageningen University and Research, NL), K. pneumoniae ATCC 11228, K. pneumoniae ATCC 13883, K. pneumonia 2048 (clnical isolate from Vrije Universiteit Amsterdam Medical Centre, NL), K. pneumonia JS-123 (clinical isolate from Utrecht Medical […]
(§2) (clinical isolate from Rijksinstituut voor Volksgezondheid en Milieu, NL), A. baumannii MDR (clinical isolate from Vrije Universiteit Amsterdam Medical Centre, NL), P. aeruginosa ATCC 27853, P. aeruginosa PAO1, P. aeruginosa NRZ-03961 (Reference strain from Das Nationale Referenzzentrum für gramnegative Krankenhauserreger, DE), P. aeruginosa M-120 (clinical isolate from Leiden University Medical Centre, NL) and S. aureus USA300 (clinical isolate from Texas Children's Hospital, USA). E. coli 25922 MCR1 was grown on LB agar supplemented with kanamycin. The inoculated agar plates were then incubated for 16 h at 37°C . Individually grown colonies were subsequently used to inoculate 3 mL aliquots of TSB that were then incubated at 37°C with shaking at 220 rpm. In parallel, the lipopeptide antibiotics to be assessed were serially diluted with Mueller-Hinton broth (MHB) in polypropylene 96-well plates (50 µL in each well).
(§3) Once the OD600 of the bacterial suspensions reached 0.5, the bacteria were diluted with MHB (final concentration 2 × 10^5 CFU mL−1) and added to the microplates containing the test compounds (50 µL to each well, final volume: 100 µL). The well-plates were sealed with an adhesive membrane and after 16 h of incubation at 37°C with shaking at 220 rpm the wells were visually inspected for bacterial growth. MIC values reported are based on three technical replicates and defined as the lowest concentration of the compound that prevented visible growth of bacteria. […]

A. baumannii ATCC 17961 = type: cell-based
Experimental: as §1, §2, §3

A. baumannii 2018-006 = type: cell-based
Experimental: as §1, §2, §3

[1] = test system: E. coli MCR-1 (clinical isolate); type: cell-based
Experimental: as §1, §2, §3

A. baumannii MDR = type: cell-based
Experimental: as §1, §2, §3

P. aeruginosa PAO1 = type: cell-based
Experimental: as §1, §2, §3

E. coli ATCC 25922 [2] = type: cell-based
Experimental: as §1, §2, §3

P. aeruginosa ATCC 27853 = type: cell-based
Experimental: as §1, §2, §3

K. pneumoniae ATCC 11228 = type: cell-based
Experimental: as §1, §2, §3

A. baumannii ATCC 17978 = type: cell-based
Experimental: as §1, §2, §3

P. aeruginosa M-120 = type: cell-based
Experimental: as §1, §2, §3

E. coli EQAS MCR-2 = type: cell-based; conditions: Ec EQAS MCR-2; broth microdilution (CLSI), MHB, 16 h 37 °C, three technical replicates
Experimental: as §1, §2, §3

K. pneumoniae JS-123 = type: cell-based
Experimental: as §1, §2, §3

K. pneumoniae 2048 = type: cell-based
Experimental: as §1, §2, §3

K. pneumoniae ATCC 13883 = type: cell-based
Experimental: as §1, §2, §3

S. aureus USA300 = type: cell-based
Experimental: as §1, §2, §3

E. coli ATCC 25922 [3] = experiment: Neutropenic mouse thigh infection efficacy study; type: in vivo, mice (ICR); conditions: neutropenic mice, E. coli ATCC 25922 thigh infection, 20 mg kg^−1 SC q8h
Experimental: In vivo tolerability and efficacy studies
Ethical Issues. Animal experiments were performed under UK Home Office Licences P89653310 (tolerability and PK) and PA67E0BAA (thigh efficacy), with local ethical committee clearance.
Animal Strain. Mice used in these studies were supplied by Charles River (Margate UK) and were specific pathogen free. The strain of mice used was ICR (also known as CD1 Mice) which is a well characterized outbred murine strain. Mice (male) were 11-15 g on receipt and were allowed to acclimatise for at least 7 days.
Animal Housing. Mice were housed in sterilised individual ventilated cages exposing the mice at all times to HEPA filtered sterile air. Mice had free access to food and water and had aspen chip bedding (changed at least once weekly). The room temperature was 22°C +/ - 1°C, with a relative humidity of 60% and maximum background noise of 56 dB. Mice were exposed to 12 h light/dark […]
Test compounds. Compound 6 was dissolved in water for injection in which it formed a clear […]
colourless solution. […]
Compound 6 was administered via subcutaneous administration route at 3 8-h […]
The mice used in the tolerability study were naïve and were not immunosuppressed or infected.
Efficacy study. The in vivo efficacy of compound 6 was assessed in a mouse thigh abscess model where both thighs of each mouse were infected with E. coli ATCC 25922
Immunosuppression. […]
Endpoints. One h and 20.5 (planned 25) h post-infection, the clinical condition of all animals was assessed prior to humane euthanasia using pentobarbitone overdose, and the thighs were removed and weighed. Thigh samples were homogenized in 3mL ice cold sterile PBS; the homogenates were quantitatively cultured onto CLED agar and incubated at 37°C for 18 - 24 h before colonies were […]
Data analysis. The data from the culture burdens were analysed using appropriate non-parametric statistical models (Kruskal-Wallis using Conover-Inman to make all pairwise comparisons between groups) with StatsDirect software v. […]

E. coli ATCC 25922 MCR-1 = type: cell-based; conditions: Ec ATCC 25922 MCR-1; broth microdilution (CLSI), MHB, 16 h 37 °C, three technical replicates
Experimental: as §1, §2, §3

[4] = Pa NRZ-03961, broth microdilution (CLSI), MHB, 16 h 37 °C, three technical replicates
[5] = Ab ATCC 17961, broth microdilution (CLSI), MHB, 16 h 37 °C, three technical replicates
[6] = Ab 2018-006, broth microdilution (CLSI), MHB, 16 h 37 °C, three technical replicates
[7] = Ec MCR-1, broth microdilution (CLSI), MHB, 16 h 37 °C, three technical replicates
[8] = Ab MDR, broth microdilution (CLSI), MHB, 16 h 37 °C, three technical replicates
[9] = Pa PAO1, broth microdilution (CLSI), MHB, 16 h 37 °C, three technical replicates
[10] = Ec ATCC 25922, broth microdilution (CLSI), MHB, 2 × 10^5 CFU/mL, 16 h 37 °C, visual read-out, three technical replicates
[11] = Pa ATCC 27853, broth microdilution (CLSI), MHB, 16 h 37 °C, three technical replicates
[12] = Kp ATCC 11228, broth microdilution (CLSI), MHB, 16 h 37 °C, three technical replicates
[13] = Ab ATCC 17978, broth microdilution (CLSI), MHB, 16 h 37 °C, three technical replicates
[14] = Pa M-120, broth microdilution (CLSI), MHB, 16 h 37 °C, three technical replicates
[15] = Kp JS-123, broth microdilution (CLSI), MHB, 16 h 37 °C, three technical replicates
[16] = Kp 2048, broth microdilution (CLSI), MHB, 16 h 37 °C, three technical replicates
[17] = Kp ATCC 13883, broth microdilution (CLSI), MHB, 16 h 37 °C, three technical replicates
[18] = Sa USA300, broth microdilution (CLSI), MHB, 16 h 37 °C, three technical replicates

Compound | MIC (P. aeruginosa NRZ-03961; [4]) [µg/mL] | MIC (A. baumannii ATCC 17961; [5]) [µg/mL] | MIC (A. baumannii 2018-006; [6]) [µg/mL] | MIC [1, 7] [µg/mL] | MIC (A. baumannii MDR; [8]) [µg/mL] | MIC (P. aeruginosa PAO1; [9]) [µg/mL] | MIC (E. coli ATCC 25922 [2]; [10]) [µg/mL] | MIC (P. aeruginosa ATCC 27853; [11]) [µg/mL] | MIC (K. pneumoniae ATCC 11228; [12]) [µg/mL] | MIC (A. baumannii ATCC 17978; [13]) [µg/mL] | MIC (P. aeruginosa M-120; [14]) [µg/mL] | MIC (E. coli EQAS MCR-2) [µg/mL] | MIC (K. pneumoniae JS-123; [15]) [µg/mL] | MIC (K. pneumoniae 2048; [16]) [µg/mL] | MIC (K. pneumoniae ATCC 13883; [17]) [µg/mL] | MIC (S. aureus USA300; [18]) [µg/mL] | MIC (E. coli ATCC 25922 MCR-1) [µg/mL] | also measured
polymyxin B [PolyB, reference compound] | 0.25 to 0.5 | <0.25 | <0.25 | 2 to 4 | <0.25 | 0.25 to 0.5 | 0.5 | <0.25 | <0.25 | <0.25 | <0.25 | 4 | <0.25 | 0.5 to 1 | 0.25 | 64 |  | antibacterial effect in thigh infection, compared with Dap9-Lat (6) at 40 mg kg^−1 (E. coli ATCC 25922 [3]): comparable
CCC(C)CCC(=O)N[C@H](CC(N)=O)C(=O)N[C@H](Cc1ccc(O)cc1)C(=O)N[C@H](Cc1c[nH]c2ccccc12)C(=O)N[C@H](CCCN)C(=O)N[C@@H](CCCN)C(=O)NCC(=O)N[C@H](CCCN)C(=O)N[C@@H](Cc1c[nH]c2ccccc12)C(=O)N[C@H]1COC(=O)[C@H](CO)NC(=O)CNC(=O)[C@H]([C@@H](C)CC)NC1=O (stereo partly drawn) [Ser9-Brev (3), Ser9-Brevicidine] ({Hexanoyl(4ξ-Me)}-[dN][dY][dW][dOrn][Orn]G[dOrn]WSIGS; ester 9-C) |  |  |  |  |  |  |  |  |  |  |  | 4 to 8 |  |  |  |  | 4 (≈ 2.66 µM) | MIC (P. aeruginosa NRZ-03961; NRZ-03961, 16 h): 4 µg/mL (≈ 2.66 µM); MIC (A. baumannii ATCC 17961; ATCC 17961, 16 h): 0.5 to 1 µg/mL; MIC (A. baumannii 2018-006; 2018-006, 16 h): 2 µg/mL (≈ 1.33 µM); MIC ([1]; MCR-1 (clinical isolate, 16 h)): 2 µg/mL (≈ 1.33 µM); MIC (A. baumannii MDR; MDR, 16 h): 1 to 2 µg/mL; MIC (P. aeruginosa PAO1; PAO1, 16 h): 2 to 4 µg/mL; MIC (E. coli ATCC 25922 [2]; ATCC 25922, 16 h): 4 µg/mL (≈ 2.66 µM); MIC (P. aeruginosa ATCC 27853; ATCC 27853, 16 h): 1 µg/mL (≈ 0.664 µM); MIC (K. pneumoniae ATCC 11228; ATCC 11228, 16 h): 2 µg/mL (≈ 1.33 µM); MIC (A. baumannii ATCC 17978; ATCC 17978, 16 h): 2 µg/mL (≈ 1.33 µM); MIC (P. aeruginosa M-120; M-120, 16 h): 2 µg/mL (≈ 1.33 µM); MIC (K. pneumoniae JS-123; JS-123, 16 h): 2 µg/mL (≈ 1.33 µM); MIC (K. pneumoniae 2048; 2048, 16 h): 4 µg/mL (≈ 2.66 µM); MIC (K. pneumoniae ATCC 13883; ATCC 13883, 16 h): 2 µg/mL (≈ 1.33 µM); MIC (S. aureus USA300; USA300, 16 h): >64 µg/mL
CCC(C)CCC(=O)N[C@H](CC(N)=O)C(=O)N[C@H](Cc1ccc(O)cc1)C(=O)N[C@H](Cc1c[nH]c2ccccc12)C(=O)N[C@H](CCCN)C(=O)N[C@@H](CCCN)C(=O)NCC(=O)N[C@H](CCCN)C(=O)N[C@@H](Cc1c[nH]c2ccccc12)C(=O)N[C@H]1CNC(=O)[C@H](CO)NC(=O)CNC(=O)[C@H]([C@@H](C)CC)NC1=O (stereo partly drawn) [Dap9-Brev (5), Dap9-Brevicidamide] ({Hexanoyl(4ξ-Me)}-[dN][dY][dW][dOrn][Orn]G[dOrn]W[Dap]IGS; lactam 9-C) | 16 to 32 | 4 (≈ 2.66 µM) | 8 (≈ 5.32 µM) | 8 to 16 | 8 (≈ 5.32 µM) | 16 to 32 | 8 to 16 | 8 (≈ 5.32 µM) | 16 to 32 | 16 (≈ 10.6 µM) | 16 (≈ 10.6 µM) | 8 to 16 | 8 (≈ 5.32 µM) | 16 to 32 | 32 (≈ 21.3 µM) | >64 | 16 (≈ 10.6 µM) | 
